How the values were obtained:
full length human TREX1 [1] = molecular target: T1, full length human TREX1 (Homo sapiens, UniProt Q9NSU2); assay: TREX1 Kinetics Assays (TR-FRET association and dissociation, global fit with Kintek Explorer); format: binding; conditions: for residence time: hTREX1, TR-FRET kinetics; for koff: hTREX1, TR-FRET, 25° C., global fit
T1 construct: N-terminally His-Tev tagged full length human TREX1; made in house; host or cells: E. coli
T1 sequence (Q9NSU2 1-314): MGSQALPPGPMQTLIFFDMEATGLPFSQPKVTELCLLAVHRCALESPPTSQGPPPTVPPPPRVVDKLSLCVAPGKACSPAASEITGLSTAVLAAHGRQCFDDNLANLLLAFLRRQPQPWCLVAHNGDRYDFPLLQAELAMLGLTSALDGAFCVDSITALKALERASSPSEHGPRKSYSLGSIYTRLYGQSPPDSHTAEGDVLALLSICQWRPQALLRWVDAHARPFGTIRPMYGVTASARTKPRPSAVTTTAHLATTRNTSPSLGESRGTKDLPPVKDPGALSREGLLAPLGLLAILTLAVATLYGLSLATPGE
Description: Compound binding kinetics were assessed using a pair of TR-FRET assays which measure the proportion of protein bound to a biotinylated TREX1 inhibitor (“probe”).
N-terminally His-Tev tagged full length human TREX1 (expressed in E. coli and purified in house), complexed with Eu-W1024-anti-6×His (“Eu”; PerkinElmer) in reaction buffer (50 mM Tris, 150 mM NaCl, 2 mM DTT, 0.1 mg/mL BSA, 0.01% (w/v) Tween-20, 5 mM MgCl2, pH 7.4) was combined with an equal volume of test compound in reaction buffer and incubated at 25° C. Concentrations at this stage were 1 nM TREX1/Eu complex, and four concentrations of compound (diluted from 10 mM stocks in 100% DMSO). At defined time points, 18 μL of this mixture was withdrawn and combined with 2 μL probe to a final concentration of 1 μM probe. After incubating for 30 seconds, 18 μL was withdrawn and combined with 2 μL streptavidin-allophycocyanin (“SA-APC”; PerkinElmer) to a final concentration of 1.5 μM SA-APC. Fifteen μL of this mixture was then immediately transferred to a 384-well Black ProxiPlate Plus (PerkinElmer) and read in an EnVision plate reader (PerkinElmer) measuring fluorescence at 615 nm and 665 nm following excitation w/337 nm laser light. Final concentrations were 0.8 nM TREX1/Eu complex, 0.9 μM probe, and 1.5 μM SA-APC.
N-terminally His-Tev tagged full length human TREX1 (expressed in E. coli and purified in house), complexed with Eu-W1024-anti-6×His (“Eu”; PerkinElmer) in reaction buffer (50 mM Tris, 150 mM NaCl, 2 mM DTT, 0.1 mg/mL BSA, 0.01% (w/v) Tween-20, 5 mM MgCl2, pH 7.4) was combined with an equal volume of test compound in reaction buffer. Concentrations at this stage were 100 nM TREX1/Eu complex and 100 nM test compound (diluted from 10 mM stocks in 100% DMSO). Following an equilibration period of at least an hour at 25° C., this mixture was diluted 100-fold into reaction buffer containing 1 μM probe, and incubated at 25° C. At defined time points, 36 μL of the reaction mixture was withdrawn and combined with 4 μL streptavidin-allophycocyanin (“SA-APC”; PerkinElmer) to a final concentration of 1.5 μM SA-APC. Fifteen μL of this mixture was then immediately transferred to duplicate wells of a 384-well Black ProxiPlate Plus (PerkinElmer) and read in an EnVision plate reader (PerkinElmer) measuring fluorescence at 615 nm and 665 nm following excitation w/337 nm laser light.
The TR-FRET signal, a ratio of 665 nm/615 nm emitted light, was converted to fraction enzyme bound to test compound by normalizing to low signal (no enzyme or test compound) and high signal (no test compound) controls. Data from both association and dissociation experiments were fitted globally using Kintek Explorer software, which computes the rate constants directly.

full length human TREX1 [2] = molecular target: T1, full length human TREX1; assay: hTREX1 Biochemical Assay (fluorescence, dsDNA substrate degradation); conditions: biochemical, read-out: hTREX1 IC50
How it was run: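 Fluorescence rises as enzyme degrades a quenched TEX615-labelled dsDNA substrate (60 nM) in 50 mM Tris, 150 mM NaCl, 5 mM MgCl2, pH 7.4. Full-length His-Tev-tagged human TREX1, 4 pM, sits with compound 4 hours at 25° C before substrate; reaction 18 hours, stopped with EDTA.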

full length mouse TREX1 = molecular target: T2, full length mouse TREX1 (Mus musculus, UniProt Q91XB0); assay: mTREX1 Biochemical Assay (fluorescence, dsDNA substrate degradation); conditions: biochemical, read-out: mTREX1 IC50
T2 construct: N-terminally His-Tev tagged full length mouse TREX1; made in house; host or cells: E. coli
T2 sequence (Q91XB0 1-314): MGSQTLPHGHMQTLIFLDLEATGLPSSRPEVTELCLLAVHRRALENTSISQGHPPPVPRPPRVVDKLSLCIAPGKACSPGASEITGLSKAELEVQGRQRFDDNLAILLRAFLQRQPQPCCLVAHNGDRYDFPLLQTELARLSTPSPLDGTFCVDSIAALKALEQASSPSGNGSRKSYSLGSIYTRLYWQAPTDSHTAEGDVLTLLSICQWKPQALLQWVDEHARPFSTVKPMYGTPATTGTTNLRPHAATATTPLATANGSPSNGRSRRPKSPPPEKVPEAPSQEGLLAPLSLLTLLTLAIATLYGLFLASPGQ
How it was run: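 Reaction run 18 h at 25° C. with 60 nM TEX615/quencher-labelled dsDNA and 6 pM mouse TREX1 in Tris buffer (pH 7.4, 5 mM MgCl2, 1.0% DMSO), enzyme having sat 4 h with compound across 10 concentrations. EDTA quench; substrate degradation measured as fluorescence increase.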

[3] = molecular target: T3, human TREX2 (residues M44-A279) (Homo sapiens, UniProt Q9BQ50); assay: hTREX2 Biochemical Assay (fluorescence, dsDNA substrate degradation); conditions: biochemical selectivity for hTREX1 vs hTREX2
T3 construct: human TREX2 (residues M44-A279, expressed in E. coli); made in house; host or cells: E. coli
T3 sequence (Q9BQ50 44-279 isoform Q9BQ50-1): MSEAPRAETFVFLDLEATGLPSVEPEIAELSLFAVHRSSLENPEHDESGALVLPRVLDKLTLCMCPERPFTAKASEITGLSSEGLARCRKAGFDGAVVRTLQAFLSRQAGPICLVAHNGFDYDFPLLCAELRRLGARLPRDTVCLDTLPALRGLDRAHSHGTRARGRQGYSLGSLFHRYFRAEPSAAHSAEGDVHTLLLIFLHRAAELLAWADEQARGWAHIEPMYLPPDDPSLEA
How it was run: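 Fluorogenic dsDNA degradation read at 615 nm (570 nm excitation) after EDTA quench. Final 60 nM substrate, 50 pM His-Tev-tagged enzyme, 5 mM MgCl2, pH 7.4, 1.0% DMSO; 4 h compound–enzyme preincubation then 18 h reaction, both 25 °C; 10-point titration.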

hTREX1 = molecular target: T4, hTREX1 (Homo sapiens, UniProt Q9NSU2); assay: hTREX1 HCT116 Cell Assay (HCT116 dual cells, Lucia luciferase reporter of Type I interferon induction); format: cell-based; conditions: TREX1i 4 h before pBR322/BstNI transfection, read after 48 h
T4 construct: host or cells: HCT116 dual cells
T4 sequence (Q9NSU2 1-314): T1 sequence (Q9NSU2 1-314)
How it was run: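 Type I interferon induction read as secreted Lucia luciferase 48 h after transfecting pBR322/BstNI digest (1 ug/mL, 100 ng/well) into HCT116 dual reporter cells. Compound added 4 h before transfection at up to 0.1% DMSO; cells in DMEM/10% FBS/25 mM HEPES at 37 °C.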

residence time (full length human TREX1 [1])	koff (full length human TREX1 [1])	IC50 (full length human TREX1 [2])	IC50 (full length mouse TREX1)	hTREX1 vs hTREX2 selectivity [3]	IC50 (hTREX1)	SMILES
–	–	1 to 10 nM	> 10 nM	A (A = <25 fold selective for hTREX1)	> 100 nM	CC(c1nc(C(=O)Nc2cnoc2)c(O)c(=O)n1C)C(c1cnn(CC(C)(C)C#N)c1)c1cc(F)ccc1Cl (single isomer, unassigned) [Example 99 D1E1]
–	–	1 to 10 nM	1 to 10 nM	A (A = <25 fold selective for hTREX1)	> 100 nM	CC(c1nc(C(=O)Nc2cnoc2)c(O)c(=O)n1C)C(c1cnn(C(C)(C)CC#N)c1)c1cc(F)ccc1Cl (single isomer, unassigned) [Example 100 D1E1]
–	–	1 to 10 nM	1 to 10 nM	A (A = <25 fold selective for hTREX1)	10 to 100 nM	Cc1cnn(C(c2ccccc2Cl)C(C)c2nc(C(=O)Nc3cnoc3)c(O)c(=O)n2C)c1 (single isomer, unassigned) [Example 133 D1E2]
–	–	< 1 nM	1 to 10 nM	C (C = >50 fold selective for hTREX1)	< 10 nM	CC(c1nc(C(=O)Nc2cnoc2)c(O)c(=O)n1C)C(c1cc(F)ccc1Cl)c1cn(C)nc1C#N (single isomer, unassigned) [Example 89 D1E2]

Continued, compound first:

SMILES	residence time (full length human TREX1 [1])	koff (full length human TREX1 [1])	IC50 (full length human TREX1 [2])	IC50 (full length mouse TREX1)	hTREX1 vs hTREX2 selectivity [3]	IC50 (hTREX1)
Cc1cnc(C(c2ccccc2C#N)C(C)c2nc(C(=O)Nc3cnoc3)c(O)c(=O)n2C)cn1 (single isomer, unassigned) [Example 46 D1E2]	346 min	4.82e-05 s⁻¹	–	–	–	–
Cc1ncc(C(c2ccccc2C#N)C(C)c2nc(C(=O)Nc3cnoc3)c(O)c(=O)n2C)cn1 (single isomer, unassigned) [Example 67 D1E2]	408 min	4.08e-05 s⁻¹	< 1 nM	–	–	–
CC(c1nc(C(=O)Nc2cnoc2)c(O)c(=O)n1C)C(c1cnn(C)c1)c1ccccc1Cl (single isomer, unassigned) [Example 77 D1E2]	–	–	> 10 nM	> 10 nM	A (A = <25 fold selective for hTREX1)	> 100 nM
CC(c1nc(C(=O)Nc2cnoc2)c(O)c(=O)n1C)C(c1cnc(C(F)(F)F)cn1)c1ccccc1C#N (single isomer, unassigned) [Example 118 D2E1]	–	–	1 to 10 nM	> 10 nM	B (B = 25 to 50-fold selective for hTREX1)	> 100 nM
CC(c1nc(C(=O)Nc2cnoc2)c(O)c(=O)n1C)C(c1ccccc1C#N)c1c[nH]nc1F (single isomer, unassigned) [Example 127 D1E2]	–	–	1 to 10 nM	> 10 nM	B (B = 25 to 50-fold selective for hTREX1)	> 100 nM
COCCCn1cc(C(c2ccccc2C#N)C(C)c2nc(C(=O)Nc3cnoc3)c(O)c(=O)n2C)cn1 (single isomer, unassigned) [Example 24 D1E1]	–	–	< 1 nM	< 1 nM	C (C = >50 fold selective for hTREX1)	< 10 nM
Cc1cnc(C)c(C(c2ccccc2C#N)C(C)c2nc(C(=O)Nc3cnoc3)c(O)c(=O)n2C)n1 (single isomer, unassigned) [Example 82 D2E1]	–	–	1 to 10 nM	> 10 nM	C (C = >50 fold selective for hTREX1)	> 100 nM

— US20240246946A1, “MODULATORS OF TREX1” (Constellation Pharmaceuticals, Inc., priority 2021, published 2024)
